Measured values from ChEMBL document CHEMBL4482301, “Methods to identify modulators” (2012).

How the values were obtained:
Format in all cases: functional, cell-based
[1] = target: T1, Taste receptor type 2 member 7 (Homo sapiens) (UniProt Q9NYW3); assay: Agonist activity at N-terminal rat ST3 receptor-fused full length human TAS2R7 transiently expressed in HEK293T cells co-expressing Galpha16gust44 assessed as increase in intracellular calcium level by measuring deltaF/F0 ratio level by Fluo-4AM dye based FLIPR assay
T1 sequence (whole entry): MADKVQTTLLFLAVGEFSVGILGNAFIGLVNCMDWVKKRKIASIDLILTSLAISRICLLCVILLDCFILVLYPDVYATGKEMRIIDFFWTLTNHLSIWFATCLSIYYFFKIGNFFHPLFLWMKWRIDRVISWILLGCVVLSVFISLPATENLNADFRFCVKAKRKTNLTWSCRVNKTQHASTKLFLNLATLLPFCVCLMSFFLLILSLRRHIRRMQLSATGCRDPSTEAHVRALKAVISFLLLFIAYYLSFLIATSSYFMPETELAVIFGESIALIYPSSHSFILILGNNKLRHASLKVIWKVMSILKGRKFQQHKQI

[2] = target: T1, Taste receptor type 2 member 7 (Homo sapiens); assay: (§1) Agonist activity at N-terminal rat ST3 receptor-fused full length human TAS2R7 transiently expressed in HEK293T cells co-expressing Galpha16gust44 assessed as increase in intracellular calcium level by measuring deltaF/F0 ratio level at 0.08 mM by Fluo-4AM dye based FLIPR assay
[3] = target: T1, Taste receptor type 2 member 7 (Homo sapiens); assay: as §1, with “stably” for “transiently”, “0.02” for “0.08”, “assay (reference value: 0.08 +/- 0.03)” for “assay”
[4] = target: T1, Taste receptor type 2 member 7 (Homo sapiens); assay: as §1, with “stably” for “transiently”, “0.16” for “0.08”, “assay (reference value: 0.15 +/- 0.06)” for “assay”
[5] = target: T1, Taste receptor type 2 member 7 (Homo sapiens); assay: as §1, with “stably” for “transiently”, “0.04” for “0.08”, “assay (reference value: 0.08 +/- 0.03)” for “assay”
[6] = target: T1, Taste receptor type 2 member 7 (Homo sapiens); assay: as §1, with “stably” for “transiently”, “assay (reference value: 0.1 +/- 0.04)” for “assay”
[7] = target: T1, Taste receptor type 2 member 7 (Homo sapiens); assay: (§2) Agonist activity at N-terminal rat ST3 receptor-fused full length human TAS2R7 transiently expressed in HEK293T cells co-expressing Galpha16gust44 assessed as increase in intracellular calcium level by measuring deltaF/F0 ratio level at 1.3 mM by Fluo-4AM dye based FLIPR assay
[8] = target: T1, Taste receptor type 2 member 7 (Homo sapiens); assay: as §1, with “stably” for “transiently”, “0.33” for “0.08”, “assay (reference value: 0.34 +/- 0.06)” for “assay”
[9] = target: T1, Taste receptor type 2 member 7 (Homo sapiens); assay: (§3) Agonist activity at N-terminal rat ST3 receptor-fused full length human TAS2R7 transiently expressed in HEK293T cells co-expressing Galpha16gust44 assessed as increase in intracellular calcium level by measuring deltaF/F0 ratio level at 0.65 mM by Fluo-4AM dye based FLIPR assay
[10] = target: T1, Taste receptor type 2 member 7 (Homo sapiens); assay: Agonist activity at N-terminal rat ST3 receptor-fused full length human TAS2R7 transiently expressed in HEK293T cells co-expressing Galpha16gust44 assessed as increase in intracellular calcium level by measuring deltaF/F0 ratio level at 2.60 mM by Fluo-4AM dye based FLIPR assay
[11] = target: T1, Taste receptor type 2 member 7 (Homo sapiens); assay: (§4) Agonist activity at N-terminal rat ST3 receptor-fused full length human TAS2R7 transiently expressed in HEK293T cells co-expressing Galpha16gust44 assessed as increase in intracellular calcium level by measuring deltaF/F0 ratio level at 0.01 mM by Fluo-4AM dye based FLIPR assay
[12] = target: T1, Taste receptor type 2 member 7 (Homo sapiens); assay: as §3, with “stably” for “transiently”, “assay (reference value: 0.41 +/- 0.14)” for “assay”
[13] = target: T1, Taste receptor type 2 member 7 (Homo sapiens); assay: as §4, with “stably” for “transiently”, “assay (reference value: 0.09 +/- 0.04)” for “assay”
[14] = target: T1, Taste receptor type 2 member 7 (Homo sapiens); assay: Agonist activity at N-terminal rat ST3 receptor-fused full length human TAS2R7 transiently expressed in HEK293T cells co-expressing Galpha16gust44 assessed as increase in intracellular calcium level by measuring deltaF/F0 ratio level at 0.02 mM by Fluo-4AM dye based FLIPR assay
[15] = target: T1, Taste receptor type 2 member 7 (Homo sapiens); assay: as §2, with “stably” for “transiently”, “assay (reference value: 0.53 +/- 0.1)” for “assay”
[16] = target: T1, Taste receptor type 2 member 7 (Homo sapiens); assay: as §3, with “stably” for “transiently”, “2.60” for “0.65”, “assay (reference value: 0.65 +/- 0.13)” for “assay”
[17] = target: T1, Taste receptor type 2 member 7 (Homo sapiens); assay: Agonist activity at N-terminal rat ST3 receptor-fused full length human TAS2R7 transiently expressed in HEK293T cells co-expressing Galpha16gust44 assessed as increase in intracellular calcium level by measuring deltaF/F0 ratio level at 0.33 mM by Fluo-4AM dye based FLIPR assay
[18] = target: T1, Taste receptor type 2 member 7 (Homo sapiens); assay: Agonist activity at N-terminal rat ST3 receptor-fused full length human TAS2R7 transiently expressed in HEK293T cells co-expressing Galpha16gust44 assessed as increase in intracellular calcium level by measuring deltaF/F0 ratio level at 0.16 mM by Fluo-4AM dye based FLIPR assay
[19] = target: T1, Taste receptor type 2 member 7 (Homo sapiens); assay: Agonist activity at N-terminal rat ST3 receptor-fused full length human TAS2R7 transiently expressed in HEK293T cells co-expressing Galpha16gust44 assessed as increase in intracellular calcium level by measuring deltaF/F0 ratio level at 0.04 mM by Fluo-4AM dye based FLIPR assay

Row | Structure (SMILES) | Activity [1] | Ratio [2] | Ratio [3] | Ratio [4] | Ratio [5] | Ratio [6] | Ratio [7] | Ratio [8] | Ratio [9] | Ratio [10] | Ratio [11] | Ratio [12] | Ratio [13] | Ratio [14] | Ratio [15] | Ratio [16] | Ratio [17] | Ratio [18] | Ratio [19]
1 | CC(C)[C@H]1CC[C@H](C)C[C@@H]1O | Dose-dependent effect | – | – | – | – | – | – | – | – | – | – | – | – | – | – | – | – | – | –
2 | CC(C)[C@@H]1CC[C@@H](C)C[C@H]1O | Dose-dependent effect | 0.1 | 0.09 | 0.23 | 0.13 | 0.12 | 0.53 | 0.61 | 0.41 | 0.65 | 0.09 | 1.03 | 0.09 | 0.08 | 1.16 | 0.92 | 0.34 | 0.15 | 0.08
